Data published in US11267861B2, “Peptide-oligourea foldamer compounds and methods of their use” (UREKA SARL, priority 2016, dated 2022).
In brackets after ≈: the same amount, converted by molar mass. Numbered stars: 1 amine (or outer) side, 2 acyl side, 3 side chain; on linkers, the order of the positions; unused ones are H or OH. Bridge positions count the residues as written; N and C are the ends. Square brackets hold non-standard residues; d marks the D form. Peptide text beside a SMILES is read from it. I, II: the chains in the order shown. X4 = NCCCC[C@@H](CNC(=O)[*:1])N[*:2]; Nle = CCCC[C@H](N)C(=O)O

Tests used:
[1] = Solubility of glucagon analogs (UV absorbance); type: physicochemical; details: for solubility: 0.01M HCl solution adjusted to pH 7 with Na2HPO4, pH 7, pH adjusted to 7 with Na2HPO4, incubated overnight at 4° C.; for ratio (solubility relative to reference compound 16): relative to compound 16;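 as to all read-outs here: peptide stock at 3 mg/ml in 0.01 M HCl, absorbance at 280 nm read before neutralization and again on the diluted supernatant after centrifugation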
Experimental: A solution of 3 mg/ml of glucagon (or analog) was prepared in a 0.01M HCl solution. Then 0.1 ml of the stock solution was diluted to 1 ml with HCl (0.01M) and the UV absorbance measured (to 280 nm) with nanodrop UV spectrometer. The pH of the remaining stock solution was adjusted to 7 using Na2HPO4, and the solution was incubated overnight at 4° C. The solution was then centrifuged three times (5 minutes, 4000 rotations per minute), 0.1 ml of the supernatant was removed and diluted to 1 ml with HCl solution (0.01M).
The final UV absorbance was measured.

[2] = biological target: T1, human glucagon receptor (Homo sapiens, UniProt P47871); experiment: Glucagon functional assay: agonist activity by cAMP production (HTRF) in transfected CHO cells; type: cell-based; details: cAMP production, transfected CHO cells, 10 minutes at 37° C.
T1 construct: expressed in transfected cells; host or cells: CHO cells
T1 sequence (P47871 26-477): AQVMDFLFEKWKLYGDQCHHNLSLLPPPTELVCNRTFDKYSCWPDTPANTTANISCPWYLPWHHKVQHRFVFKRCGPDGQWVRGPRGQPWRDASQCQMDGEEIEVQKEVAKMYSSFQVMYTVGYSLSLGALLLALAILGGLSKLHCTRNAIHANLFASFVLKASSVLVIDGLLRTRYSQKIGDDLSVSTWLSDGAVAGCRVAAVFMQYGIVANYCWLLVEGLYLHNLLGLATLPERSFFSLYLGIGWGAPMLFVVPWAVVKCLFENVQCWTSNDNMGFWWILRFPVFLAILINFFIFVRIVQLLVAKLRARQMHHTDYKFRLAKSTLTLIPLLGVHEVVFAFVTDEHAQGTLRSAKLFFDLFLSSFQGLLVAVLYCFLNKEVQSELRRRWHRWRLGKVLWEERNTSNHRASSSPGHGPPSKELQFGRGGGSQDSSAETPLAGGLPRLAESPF
Experimental: Functional Assay to Examine Bioactivity of Glucagon Receptor Agonists. Evaluation of the agonist activity of compounds at the human glucagon receptor expressed in transfected CHO cells was examined by measuring their effects on cAMP production using the HTRF detection method. […] For stimulated control measurement, separate assay wells contain 100 nM glucagon were utilized.
Following incubation, the cells were lysed and the fluorescence acceptor (D2-labeled cAMP) and fluorescence donor (anti-cAMP antibody labeled with europium cryptate) were added. […] The results are expressed as a percent of the control response to 100 nM glucagon. The standard reference agonist is glucagon, which was tested in each experiment at several concentrations to generate a concentration-response curve from which its EC50 value was calculated.
HTRF (Homogeneous Time-Resolved Fluorescence) principle. The HTRF technology is based on time resolved fluorescence energy transfer (TR-FRET), which occurs between long-lived fluorophore Europium or Terbium Cryptates, and EuK or Tb respectively, as a donor and the allophycocyanin XL665, d2 or Red as acceptor. Many compounds and proteins present in biological fluids or serum are naturally fluorescent, and the use of conventional, prompt fluorescence leads to serious limitations in assay sensitivity. The use of long-lived fluorophore combined with time-resolved detection (a delay between excitation and emission detection) minimizes prompt fluorescence interference.

Structure (SMILES)	solubility [1]	ratio (solubility relative to reference compound 16) [1]	EC50 [2]
CCCC[C@H](NC(=O)[C@H](CC(C)C)NC(=O)NC[C@H](C)NC(=O)[C@H](CCC(N)=O)NC(=O)[C@@H](NC(=O)[C@H](Cc1ccccc1)NC(=O)[C@H](CC(=O)O)NC(=O)[C@H](CCC(N)=O)NC(=O)[C@H](C)NC(=O)[C@H](CCCNC(=N)N)NC(=O)[C@H](CCCNC(=N)N)NC(=O)[C@H](CO)NC(=O)[C@H](CC(=O)O)NC(=O)[C@H](CC(C)C)NC(=O)[C@H](Cc1ccc(O)cc1)NC(=O)[C@H](CCCCN)NC(=O)[C@H](CO)NC(=O)[C@H](Cc1ccc(O)cc1)NC(=O)[C@H](CC(=O)O)NC(=O)[C@H](CO)NC(=O)[C@@H](NC(=O)[C@H](Cc1ccccc1)NC(=O)[C@@H](NC(=O)CNC(=O)[C@H](CCC(N)=O)NC(=O)[C@H](CO)NC(=O)[C@@H](N)Cc1c[nH]cn1)[C@@H](C)O)[C@@H](C)O)C(C)C)C(=O)N[C@@H](CC(N)=O)C(=O)N[C@H](C(=O)O)[C@@H](C)O [Compound 57]	970 µg/mL (≈ 287 µM)	3.9	22 nM
CCCC[C@H](NC(=O)NC[C@H](C)NC(=O)[C@H](Cc1c[nH]c2ccccc12)NC(=O)[C@H](CCC(N)=O)NC(=O)[C@@H](NC(=O)[C@H](Cc1ccccc1)NC(=O)[C@H](CC(=O)O)NC(=O)[C@H](CCC(N)=O)NC(=O)[C@H](C)NC(=O)[C@H](CCCNC(=N)N)NC(=O)[C@H](CCCNC(=N)N)NC(=O)[C@H](CO)NC(=O)[C@H](CC(=O)O)NC(=O)[C@H](CC(C)C)NC(=O)[C@H](Cc1ccc(O)cc1)NC(=O)[C@H](CCCCN)NC(=O)[C@H](CO)NC(=O)[C@H](Cc1ccc(O)cc1)NC(=O)[C@H](CC(=O)O)NC(=O)[C@H](CO)NC(=O)[C@@H](NC(=O)[C@H](Cc1ccccc1)NC(=O)[C@@H](NC(=O)CNC(=O)[C@H](CCC(N)=O)NC(=O)[C@H](CO)NC(=O)[C@@H](N)Cc1c[nH]cn1)[C@@H](C)O)[C@@H](C)O)C(C)C)C(=O)N[C@@H](CC(N)=O)C(=O)N[C@H](C(=O)O)[C@@H](C)O [Compound 58]	1510 µg/mL (≈ 437 µM)	6.0	35 nM
CCCC[C@H](NC(=O)[C@H](CC(C)C)NC(=O)[C@H](Cc1c[nH]c2ccccc12)NC(=O)[C@H](CCC(N)=O)NC(=O)[C@@H](NC(=O)[C@H](Cc1ccccc1)NC(=O)[C@H](CC(=O)O)NC(=O)[C@H](CCC(N)=O)NC(=O)[C@H](C)NC(=O)[C@H](CCCNC(=N)N)NC(=O)[C@H](CCCNC(=N)N)NC(=O)[C@H](CO)NC(=O)[C@H](CC(=O)O)NC(=O)[C@H](CC(C)C)NC(=O)[C@H](Cc1ccc(O)cc1)NC(=O)NC[C@H](CCCCN)NC(=O)[C@H](CO)NC(=O)[C@H](Cc1ccc(O)cc1)NC(=O)[C@H](CC(=O)O)NC(=O)[C@H](CO)NC(=O)[C@@H](NC(=O)[C@H](Cc1ccccc1)NC(=O)[C@@H](NC(=O)CNC(=O)[C@H](CCC(N)=O)NC(=O)[C@H](CO)NC(=O)[C@@H](N)Cc1c[nH]cn1)[C@@H](C)O)[C@@H](C)O)C(C)C)C(=O)N[C@@H](CC(N)=O)C(=O)N[C@H](C(=O)O)[C@@H](C)O [Compound 59] (I: YLDSRRAQDFVQWL[Nle]NT-OH / II: H-HSQGTFTSDYS; linker I:N-II:C via X4; C-terminus assumed)	720 µg/mL (≈ 206 µM)	2.9	32 nM
CCCC[C@H](NC(=O)[C@H](CC(C)C)NC(=O)[C@H](Cc1c[nH]c2ccccc12)NC(=O)[C@H](CCC(N)=O)NC(=O)[C@@H](NC(=O)[C@H](Cc1ccccc1)NC(=O)[C@H](CC(=O)O)NC(=O)NC[C@H](CCC(N)=O)NC(=O)[C@H](C)NC(=O)[C@H](CCCNC(=N)N)NC(=O)[C@H](CCCNC(=N)N)NC(=O)[C@H](CO)NC(=O)[C@H](CC(=O)O)NC(=O)[C@H](CC(C)C)NC(=O)[C@H](Cc1ccc(O)cc1)NC(=O)[C@H](CCCCN)NC(=O)[C@H](CO)NC(=O)[C@H](Cc1ccc(O)cc1)NC(=O)[C@H](CC(=O)O)NC(=O)[C@H](CO)NC(=O)[C@@H](NC(=O)[C@H](Cc1ccccc1)NC(=O)[C@@H](NC(=O)CNC(=O)[C@H](CCC(N)=O)NC(=O)[C@H](CO)NC(=O)[C@@H](N)Cc1c[nH]cn1)[C@@H](C)O)[C@@H](C)O)C(C)C)C(=O)N[C@@H](CC(N)=O)C(=O)N[C@H](C(=O)O)[C@@H](C)O [Compound 60]	830 µg/mL (≈ 238 µM)	3.3	36 nM
